In ChEMBL document CHEMBL3885881, “DrugMatrix”:

Organism: Rattus norvegicus
Assay: DrugMatrix - Regimen: Daily Repeat
Assay type: toxicity, organism-based, Sprague-Dawley
Parameters: regimen Daily Repeat, gender Male, age 6-8 weeks
Settings: in vivo, po, 75 mg/kg, route oral GAVAGE, dose level High, vehicle .5 % CMC; for ABSOLUTE BASOPHIL / ABSOLUTE EOSINOPHIL / ABSOLUTE LYMPHOCYTE / ABSOLUTE MONOCYTE / ABSOLUTE SEGMENTED NEUTROPHIL / BASOPHIL / EOSINOPHIL / ERYTHROCYTE COUNT / HEMATOCRIT / HEMOGLOBIN / LEUKOCYTE COUNT / LYMPHOCYTE / MEAN CORPUSCULAR HEMOGLOBIN / MEAN CORPUSCULAR HEMOGLOBIN CONCENTRATION / MEAN CORPUSCULAR VOLUME / MONOCYTE / NEUTROPHIL / NUCLEATED RED BLOOD CELLS / PLATELET COUNT: tissue Blood
[1] = 72 h, tissue Plasma, time 3 day
[2] = 120 h, tissue Plasma, time 5 day

With `Nc1ccc(Cl)cc1` [4-CHLOROANILINE] the “ABSOLUTE BASOPHIL” value (72 h, time 3 day) was 0 CELLS/uL, the “ABSOLUTE EOSINOPHIL” value (72 h, time 3 day) was 340 CELLS/uL and the “ABSOLUTE LYMPHOCYTE” value (72 h, time 3 day) was 18564 CELLS/uL. The “ABSOLUTE MONOCYTE” value (72 h, time 3 day) was 396 CELLS/uL, the “ABSOLUTE SEGMENTED NEUTROPHIL” value (72 h, time 3 day) was 3900 CELLS/uL and the BASOPHIL (72 h, time 3 day) was 0%. For the same compound, the EOSINOPHIL (72 h, time 3 day) was 1.67%, the “ERYTHROCYTE COUNT” value (72 h, time 3 day) was 5.42 x10E6/uL and the HEMATOCRIT (72 h, time 3 day) was 35.1%. The HEMOGLOBIN (72 h, time 3 day) was 13.57 G/DL, the “LEUKOCYTE COUNT” value (72 h, time 3 day) was 27.87 x10E3/uL and the LYMPHOCYTE (72 h, time 3 day) was 79.33%. For the same compound, the “MEAN CORPUSCULAR HEMOGLOBIN” value (72 h, time 3 day) was 25.13 pg, the “MEAN CORPUSCULAR HEMOGLOBIN CONCENTRATION” value (72 h, time 3 day) was 38.77 G/DL and the “MEAN CORPUSCULAR VOLUME” value (72 h, time 3 day) was 64.77 fL. The MONOCYTE (72 h, time 3 day) was 1.67%, the NEUTROPHIL (72 h, time 3 day) was 17.33% and the “NUCLEATED RED BLOOD CELLS” value (72 h, time 3 day) was 1 /100WBC. The “PLATELET COUNT” value (72 h, time 3 day) was 1129 x10E3/uL, the “ALANINE AMINOTRANSFERASE” value [1] was 48.33 u/L and the ALBUMIN [1] was 4.23 G/DL. The “ALKALINE PHOSPHATASE” value [1] was 297 u/L, the “ASPARTATE AMINOTRANSFERASE” value [1] was 88.67 u/L and the “BLOOD UREA NITROGEN” value [1] was 14.67 mg/dL. The “CARBON DIOXIDE” value [1] was 26.67 mmol/L, the CHLORIDE [1] was 104 MEQ/L and the CHOLESTEROL [1] was 52.67 mg/dL. For the same compound, the CREATININE [1] was 0.27 mg/dL, the GLUCOSE [1] was 226.33 mg/dL and the “LACTATE DEHYDROGENASE” value [1] was 200 u/L. It also gave an LIPASE [1] of 9.67 u/L, a PHOSPHORUS [1] of 13.43 mg/dL and a POTASSIUM [1] of 6.55 MEQ/L. For the same compound, the SODIUM [1] was 147 MEQ/L, the “TOTAL BILIRUBIN” value [1] was 0.23 mg/dL and the “TOTAL PROTEIN” value [1] was 6.3 G/DL. For the same compound, the “URIC ACID” value [1] was 2.03 mg/dL, the “ABSOLUTE BASOPHIL” value (120 h, time 5 day) was 0 CELLS/uL and the “ABSOLUTE EOSINOPHIL” value (120 h, time 5 day) was 666.67 CELLS/uL. The “ABSOLUTE LYMPHOCYTE” value (120 h, time 5 day) was 19854.67 CELLS/uL, the “ABSOLUTE MONOCYTE” value (120 h, time 5 day) was 430.67 CELLS/uL and the “ABSOLUTE SEGMENTED NEUTROPHIL” value (120 h, time 5 day) was 5848 CELLS/uL. For the same compound, the BASOPHIL (120 h, time 5 day) was 0%, the EOSINOPHIL (120 h, time 5 day) was 2.33% and the “ERYTHROCYTE COUNT” value (120 h, time 5 day) was 4.48 x10E6/uL. For the same compound, the HEMATOCRIT (120 h, time 5 day) was 32.57%, the HEMOGLOBIN (120 h, time 5 day) was 13.73 G/DL and the “LEUKOCYTE COUNT” value (120 h, time 5 day) was 26.8 x10E3/uL. The LYMPHOCYTE (120 h, time 5 day) was 74%, the “MEAN CORPUSCULAR HEMOGLOBIN” value (120 h, time 5 day) was 30.77 pg and the “MEAN CORPUSCULAR HEMOGLOBIN CONCENTRATION” value (120 h, time 5 day) was 42.2 G/DL. For the same compound, the “MEAN CORPUSCULAR VOLUME” value (120 h, time 5 day) was 72.87 fL, the MONOCYTE (120 h, time 5 day) was 1.67% and the NEUTROPHIL (120 h, time 5 day) was 22%. For the same compound, the “NUCLEATED RED BLOOD CELLS” value (120 h, time 5 day) was 1.33 /100WBC, the “PLATELET COUNT” value (120 h, time 5 day) was 1147 x10E3/uL and the “ALANINE AMINOTRANSFERASE” value [2] was 61.33 u/L. For the same compound, the ALBUMIN [2] was 4.23 G/DL, the “ALKALINE PHOSPHATASE” value [2] was 360.33 u/L and the “ASPARTATE AMINOTRANSFERASE” value [2] was 93.67 u/L. For the same compound, the “BLOOD UREA NITROGEN” value [2] was 13 mg/dL, the “CARBON DIOXIDE” value [2] was 31.33 mmol/L and the CHLORIDE [2] was 102.33 MEQ/L. The CHOLESTEROL [2] was 64.67 mg/dL, the CREATININE [2] was 0.2 mg/dL and the GLUCOSE [2] was 157.33 mg/dL. For the same compound, the “LACTATE DEHYDROGENASE” value [2] was 180.67 u/L, the LIPASE [2] was 9 u/L and the PHOSPHORUS [2] was 11.23 mg/dL. For the same compound, the POTASSIUM [2] was 6.43 MEQ/L, the SODIUM [2] was 148.33 MEQ/L and the “TOTAL BILIRUBIN” value [2] was 0.43 mg/dL. The “TOTAL PROTEIN” value [2] was 6.23 G/DL.
